Test results published in patent publication US20240425491A1, “HETEROARYL COMPOUNDS USEFUL IN THE TREATMENT OF COGNITIVE DISORDERS” (University College Cardiff Consultants Limited, priority 2021, published 2024).

Assays:
[1] = target: T1, human recombinant GABAAR containing α5β3γ2 subunits (benzodiazepine site) (Homo sapiens, UniProt P18507+P31644); experiment: In vitro radioligand binding assay (α5-GABAAR Ki); conditions: inhibition of [3H]Ro15-1788 binding, membranes of L(tk−) cells expressing human α5β3γ2; read-out: α5-GABAAR Ki
T1 construct: expressed in transfected cells; host or cells: mouse L(tk−) cells, dexamethasone-inducible vector pMSGneo
Method in brief: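 Membranes from mouse L(tk^−) cells stably expressing human α5β3γ2 GABAAR incubated 1 h at 4° C with 4 nM [^3H]Ro15-1788 and test compound; nonspecific binding with 1 μM TP003. Filter-bound radioactivity counted; Ki from IC50 by Cheng-Prusoff using measured Kd.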

[2] = target: T2, human α5β3γ2 GABAARs in mouse L(tk−) cells (Homo sapiens, UniProt P18507+P31644); experiment: In vitro electrophysiological recording assay (α5-GABAAR relative efficacy), QPatch; format: cell-based; conditions: GABA EC10-20
T2 construct: expressed in transfected cells; host or cells: mouse L(tk−) cells, dexamethasone-inducible vector pMSGneo
From the text: Mouse L(tk^−) cells stably expressing human α1β3γ2, α2β3γ2, α3β3γ2, α5β3γ2 GABAARs generated by transfection of the individual subunits in the dexamethasone-inducible expression vector pMSGneo in mouse L(tk^−) cells (Hadingham et al., 1993, Mol. Pharmacol. 43:970-975 and 1993, Mol. Pharmacol. 44:1211-1218) were used for binding and functional assays. For certain compounds, HEK293 cells stable expressing the human α1β3γ2L, α2β3γ2L, α3β3γ2L and α5β3γ2L GABAA receptors were used to evaluate their functional effects in a SyncroPatch electrophysiology assay.
For QPatch electrophysiology testing, 1 μM dexamethasone was added to the culture medium of L(tk^−) cells 24 hours before the recordings were performed. Cells were typically used for electrophysiology experiments 72-96 hours after splitting.
The efficacy of modulators was evaluated using either the automated patch-clamp platform QPatch16 (Sophion, Copenhagen, Denmark) or the SyncroPatch 384i (Nanion Technologies, Germany). Cells were harvested from flasks by enzymatic dissociation and re-suspended in serum-free medium.
For QPatch recordings, all experiments were carried out at room temperature (20-22° C.) using a standard whole cell procedure and physiological solutions. Gigaseals were formed upon execution of a combined suction/voltage protocol with subsequent increased suction leading to the whole-cell configuration. The currents recorded were acquired at 1 KHz and filtered at 0.3 KHz using a Bessel filter. Whole-cell currents were measured at a holding potential of −65 mV.
For QPatch recordings, the extracellular solution contained of (in mM): 145 NaCl, 4 KCl, 1 MgCl2, 2CaCl2, 10 HEPES, 10 D-glucose (pH 7.4), and the intracellular solution consisted of (in mM): 96 KCl, 28 CsCl, 25 KOH, 4.3 CaCl2), 1.4 MgCl2, 10 EGTA, HEPES, 3 MgATP (pH 7.2). The osmolarities of the extracellular and intracellular solutions were 305 and 295 mOsm respectively.
The effects of modulators were evaluated in the presence of a submaximal GABA concentration, giving typically 10-20% activation (GABA EC10-20) of the response elicited by a saturating GABA concentration. For QPatch recordings, to check and ensure baseline current stability before compound addition, five consecutive applications of GABA EC10-20 alone (each application with a 2 s duration, separated by minimum 1 min wash off periods) were performed before compound addition. The test compound was applied using the pipetting system of the QPatch system 1 min at least prior to co-application with GABA EC10-20. For SyncroPatch recordings, GABA EC20 alone was applied three times (1 s long applications, with wash steps in-between) before compound addition. This was followed by a 1-2 min pre-incubation with the test compound and then re-application of GABA EC10-20 in the presence of the compound. Finally, following a further wash step, a saturating concentration of GABA was applied, allowing the accurate evaluation for each cell of the percentage baseline activation elicited by the submaximal GABA applied.
The compounds were first dissolved in DMSO as a 10 mM stock and then further diluted to the testing concentrations so that the final DMSO concentration in the extracellular recording solution was kept constant at 0.1% for the QPatch recordings, or 0.2% for the SyncroPatch recordings.
The % efficacy of modulators was determined from the GABA elicited currents recorded in the presence and absence of the test compound, using the formula:
[((compound peak current−leak)−(GABA peak current−leak))/(GABA peak current−leak)]*100,
where ‘leak’ is the leak baseline current at −65 mV, ‘compound peak current’ is the current elicited by co-application of compound and GABA, and ‘GABA peak current’ is the current elicited by GABA alone during the 5th GABA application. The results were presented as ‘relative efficacy’ for each compound generally at a concentration equal or higher than 100 times their determined Ki. […]

T1 sequence (P31644 32-462): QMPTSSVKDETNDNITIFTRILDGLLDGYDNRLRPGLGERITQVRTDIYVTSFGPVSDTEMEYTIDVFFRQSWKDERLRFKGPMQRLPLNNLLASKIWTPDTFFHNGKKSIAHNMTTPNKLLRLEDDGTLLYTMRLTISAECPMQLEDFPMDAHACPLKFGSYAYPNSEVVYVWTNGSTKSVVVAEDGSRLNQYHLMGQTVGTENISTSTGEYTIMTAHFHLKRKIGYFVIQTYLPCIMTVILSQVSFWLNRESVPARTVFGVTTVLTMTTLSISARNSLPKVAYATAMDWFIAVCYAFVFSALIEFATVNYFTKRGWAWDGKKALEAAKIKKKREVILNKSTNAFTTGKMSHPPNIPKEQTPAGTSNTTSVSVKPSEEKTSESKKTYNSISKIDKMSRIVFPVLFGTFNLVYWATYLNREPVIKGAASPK
T1 sequence (P28472 26-473 partner): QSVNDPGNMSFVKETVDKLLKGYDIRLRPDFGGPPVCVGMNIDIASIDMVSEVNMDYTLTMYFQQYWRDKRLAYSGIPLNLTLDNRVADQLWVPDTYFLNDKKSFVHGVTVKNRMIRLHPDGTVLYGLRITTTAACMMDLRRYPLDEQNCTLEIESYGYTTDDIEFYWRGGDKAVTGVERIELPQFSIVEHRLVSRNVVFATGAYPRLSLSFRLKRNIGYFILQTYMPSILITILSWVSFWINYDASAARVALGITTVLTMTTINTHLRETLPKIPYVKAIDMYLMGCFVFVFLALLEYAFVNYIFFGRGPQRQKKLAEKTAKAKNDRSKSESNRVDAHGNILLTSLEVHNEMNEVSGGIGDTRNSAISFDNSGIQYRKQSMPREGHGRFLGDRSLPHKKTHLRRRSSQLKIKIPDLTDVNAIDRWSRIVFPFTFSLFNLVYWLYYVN
T1 sequence (P18507 40-475): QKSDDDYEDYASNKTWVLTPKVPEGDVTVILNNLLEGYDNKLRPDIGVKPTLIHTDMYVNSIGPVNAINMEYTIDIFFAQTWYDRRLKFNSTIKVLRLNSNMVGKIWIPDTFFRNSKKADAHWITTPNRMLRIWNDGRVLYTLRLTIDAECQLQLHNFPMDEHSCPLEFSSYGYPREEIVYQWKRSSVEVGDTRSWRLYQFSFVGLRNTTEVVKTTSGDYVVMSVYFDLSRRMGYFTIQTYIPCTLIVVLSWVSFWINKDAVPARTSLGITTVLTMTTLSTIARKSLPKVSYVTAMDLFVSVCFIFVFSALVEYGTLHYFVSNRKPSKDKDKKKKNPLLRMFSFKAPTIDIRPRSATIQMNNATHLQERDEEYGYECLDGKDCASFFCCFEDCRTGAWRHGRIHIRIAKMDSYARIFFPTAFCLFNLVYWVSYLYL
T2 sequence (P31644 32-462): as the sequence (P31644 32-462) above
T2 sequence (P28472 26-473 partner): as the sequence (P28472 26-473 partner) above
T2 sequence (P18507 40-475): as the sequence (P18507 40-475) above

Structure (SMILES) | Ki [1] [nM] | α5-GABAAR Relative Efficacy (to DMCM), Qpatch ([2]; Conc 1 μM) | α5-GABAAR Relative Efficacy (to DMCM), Qpatch ([2]; Conc 0.3 μM) | α5-GABAAR Relative Efficacy (to DMCM), Qpatch ([2]; Conc 3 μM)
COc1nc(-c2cn[nH]c2)ccc1NC(=O)c1c(-c2ccccc2)noc1C [Example 26, N-[2-Methoxy-6-(1H-pyrazol-4-yl)-3-pyridyl]-5-methyl-3-phenyl-isoxazole-4-carboxamide] | 8 | −0.68 |  | 
COc1nc(-c2ccc(CO)nc2)ccc1NC(=O)c1c(-c2ccccc2)noc1C [Example 27, N-[6-[6-(Hydroxymethyl)-3-pyridyl]-2-methoxy-3-pyridyl]-5-methyl-3-phenyl-isoxazole-4-carboxamide] | 2.3 |  | −0.83 | 
COc1nc(-c2ccc(=O)n(C)c2)ccc1NC(=O)c1c(-c2ccccc2)noc1C [Example 28, N-[2-Methoxy-6-(1-methyl-6-oxo-3-pyridyl)-3-pyridyl]-5-methyl-3-phenyl-isoxazole-4-carboxamide] | 5.2 | −0.61 |  | 
COc1cc(-c2cccc3nccn23)cnc1NC(=O)c1c(-c2ccccc2)noc1C [Example 29, N-(5-Imidazo[1,2-a]pyridin-5-yl-3-methoxy-2-pyridyl)-5-methyl-3-phenyl-isoxazole-4-carboxamide] | 1.5 |  | −0.53 | 
COc1nc(-c2cccc3nccn23)ccc1NC(=O)c1c(-c2ccccc2)noc1C [Example 30, N-(6-Imidazo[1,2-a]pyridin-5-yl-2-methoxy-3-pyridyl)-5-methyl-3-phenyl-isoxazole-4-carboxamide] | 5.1 | −0.42 |  | 
COc1nc(-c2ccc3[nH]nc(N)c3c2)ccc1NC(=O)c1c(-c2ccccc2)noc1C [Example 33, N-[6-(3-Amino-1H-indazol-5-yl)-2-methoxy-3-pyridyl]-5-methyl-3-phenyl-isoxazole-4-carboxamide] | 15.8 |  |  | −0.50
COc1nc(-c2cccnc2)ccc1NC(=O)c1c(-c2ccccc2)noc1C [Example 37, N-(6-Methoxy-[2,3′-bipyridin]-5-yl)-5-methyl-3-phenylisoxazole-4-carboxamide] | 2.8 |  | −0.56 | 
COc1nc(-c2cncc(N)n2)ccc1NC(=O)c1c(-c2ccccc2)noc1C [Example 40, N-[6-(6-Aminopyrazin-2-yl)-2-methoxy-3-pyridyl]-5-methyl-3-phenyl-isoxazole-4-carboxamide] | 6.9 | −0.57 |  | 
COc1ncc(-c2ccc(NC(=O)c3c(-c4ccccc4)noc3C)c(OC)n2)cn1 [Example 41, N-(2-Methoxy-6-(2-methoxypyrimidin-5-yl)pyridin-3-yl)-5-methyl-3-phenyl-isoxazole-4-carboxamide] | 1.8 |  | −0.87 | 
COc1nc(-c2ccncc2)ccc1NC(=O)c1c(-c2ccccc2)noc1C [Example 42, N-(6-Methoxy-[2,4′-bipyridin]-5-yl)-5-methyl-3-phenylisoxazole-4-carboxamide] | 2.8 |  | −0.60 | 

The remaining lines, values ahead:

Ki [1] [nM] | α5-GABAAR Relative Efficacy (to DMCM), Qpatch ([2]; Conc 1 μM) | α5-GABAAR Relative Efficacy (to DMCM), Qpatch ([2]; Conc 0.3 μM) | α5-GABAAR Relative Efficacy (to DMCM), Qpatch ([2]; Conc 3 μM) | Structure (SMILES)
3.6 | −0.69 |  |  | COc1nc(-n2ccnc2)cnc1NC(=O)c1c(-c2ccccc2)noc1C [Example 44, N-(5-Imidazol-1-yl-3-methoxy-pyrazin-2-yl)-5-methyl-3-phenyl-isoxazole-4-carboxamide]
1.2 |  | −0.65 |  | COc1nc(-c2cnc(N(C)C)nc2)ccc1NC(=O)c1c(-c2ccccc2)noc1C [Example 45, N-(6-(2-(Dimethylamino)pyrimidin-5-yl)-2-methoxypyridin-3-yl)-5-methyl-3-phenylisoxazole-4-carboxamide]
4.4 | −0.69 |  |  | COc1nc(-n2cncn2)ccc1NC(=O)c1c(-c2ccccc2)noc1C [Example 46, N-[2-Methoxy-6-(1,2,4-triazol-1-yl)-3-pyridyl]-5-methyl-3-phenyl-isoxazole-4-carboxamide]
2.7 |  | −0.90 |  | CCOc1ncc(-c2ccc(NC(=O)c3c(-c4ccccc4)noc3C)c(OC)n2)cn1 [Example 48, N-[6-(2-Ethoxypyrimidin-5-yl)-2-methoxy-3-pyridyl]-5-methyl-3-phenyl-isoxazole-4-carboxamide]
7.9 | −0.83 |  |  | COc1nc(-c2ccc3[nH]nnc3c2)ccc1NC(=O)c1c(-c2ccccc2)noc1C [Example 49, N-[6-(1H-Benzotriazol-5-yl)-2-methoxy-3-pyridyl]-5-methyl-3-phenyl-isoxazole-4-carboxamide]
9.6 | −0.74 |  |  | COc1nc(-c2cccc3nc(N)nn23)ccc1NC(=O)c1c(-c2ccccc2)noc1C [Example 50, N-[6-(2-Amino-[1,2,4]triazolo[1,5-a]pyridin-5-yl)-2-methoxy-3-pyridyl]-5-methyl-3-phenyl-isoxazole-4-carboxamide]
9.8 | −0.49 |  |  | COc1nc(-c2ncnn2C)ccc1NC(=O)c1c(-c2ccccc2)noc1C [Example 52, N-[2-Methoxy-6-(2-methyl-1,2,4-triazol-3-yl)-3-pyridyl]-5-methyl-3-phenyl-isoxazole-4-carboxamide]
7.4 | −0.55 |  |  | COc1nc(-c2nccnc2N)ccc1NC(=O)c1c(-c2ccccc2)noc1C [Example 54, N-[6-(3-Aminopyrazin-2-yl)-2-methoxy-3-pyridyl]-5-methyl-3-phenyl-isoxazole-4-carboxamide]
2.3 |  | −0.64 |  | COc1nc(-c2cncnc2)cnc1NC(=O)c1c(-c2ccccc2)noc1C [Example 56, N-(3-Methoxy-5-(pyrimidin-5-yl)pyrazin-2-yl)-5-methyl-3-phenylisoxazole-4-carboxamide]
1.5 |  | −0.57 |  | COc1nc(-c2ccc3nc(N)nn3c2)ccc1NC(=O)c1c(-c2ccccc2)noc1C [Example 57, N-[6-(2-Amino-[1,2,4]triazolo[1,5-a]pyridin-6-yl)-2-methoxy-3-pyridyl]-5-methyl-3-phenyl-isoxazole-4-carboxamide]
18.1 |  |  | −0.79 | COc1nc(-c2nnco2)ccc1NC(=O)c1c(-c2ccccc2)noc1C [Example 58, N-[2-Methoxy-6-(1,3,4-oxadiazol-2-yl)-3-pyridyl]-5-methyl-3-phenyl-isoxazole-4-carboxamide]
10.4 |  |  | −0.75 | COc1nc(-c2cnc(OCC(F)(F)F)nc2)ccc1NC(=O)c1c(-c2ccccc2)noc1C [Example 59, N-[2-Methoxy-6-[2-(2,2,2-trifluoroethoxy)pyrimidin-5-yl]-3-pyridyl]-5-methyl-3-phenyl-isoxazole-4-carboxamide]
1.3 |  | −0.92 |  | COc1nc(-c2cnc(C(=O)O)nc2)ccc1NC(=O)c1c(-c2ccccc2)noc1C [Example 60, 5-[6-Methoxy-5-[(5-methyl-3-phenyl-isoxazole-4-carbonyl)amino]-2-pyridyl]pyrimidine-2-carboxylic acid]
